Assay results as given in publication PMC3508718 (Clinical pharmacokinetics, 2012).
Like-named read-outs stand apart in the source and are kept apart here.

Experiments:
[1] = Population pharmacokinetic co-modelling of blood plasma; settings: female, human
[2] = female, human, in vivo
wild-type HIV virus = settings: cited from earlier work
[3] = Model-predicted AUCτ in BP and CVF and CVF:BP AUC ratios; type: in vivo, HIV-infected pre-menopausal women
[4] = non-compartmental analysis; ref [13]; cited from earlier work
[5] = cited from earlier work
[6] = female, human, in vivo, CVF AUCτ:BP AUCτ ratio
[7] = female, human, in vivo, CVF AUCτ:BP fAUCτ ratio
[8] = first dose, median (25th, 75th percentiles), model-predicted
[9] = multiple dose, median (25th, 75th percentiles), model-predicted

COC(=O)N[C@H](C(=O)N[C@@H](Cc1ccccc1)[C@@H](O)CN(Cc1ccc(-c2ccccn2)cc1)NC(=O)[C@@H](NC(=O)OC)C(C)(C)C)C(C)(C)C [Atazanavir, atazanavir]
Vd ([1]; in vivo): 10.4 L
ka,FD (first-order absorption rate constant, first dose) [2]: 0.879 (79.5) [29.0] h^−1
tauFD (transit compartment transfer rate constant BP to CVF, first dose) [2]: 0.773 (145) [52.8] h^−1
tauMD (transit compartment transfer rate constant BP to CVF, multiple dose) [2]: 1.41 (216) [85.2] h^−1
IC50 (concentration producing 50 % inhibition of wild-type HIV virus) (wild-type HIV virus; ref [15]): 11 ng/mL
AUC ([3]; female, human, in vivo, BP AUCτ, first dose, median (25th, 75th percentiles), model-predicted): 25.3 ng·h/mL
AUC ([3]; female, human, in vivo, BP AUCτ, multiple dose, median (25th, 75th percentiles), model-predicted): 54.6 ng·h/mL
AUC ([3]; female, human, in vivo, CVF AUCτ, first dose, median (25th, 75th percentiles), model-predicted): 5.66 ng·h/mL
AUC ([3]; female, human, in vivo, CVF AUCτ, multiple dose, median (25th, 75th percentiles), model-predicted): 5.53 ng·h/mL
Kp [3, 6]: 0.299
Kp [3, 7]: 2.14
BP fAUCτ (unbound) [3, 8]: 3.55 (0.867, 6.15) μg•h/L
BP fAUCτ (unbound) [3, 9]: 7.64 (1.61, 9.54) μg•h/L
penetration / exposure in CVF relative to BP (in words) [4]: moderately penetrative

O=C1Nc2ccc(Cl)cc2[C@@](C#CC2CC2)(C(F)(F)F)O1 [Efavirenz, efavirenz]
Vd ([1]; cervicovaginal fluid, oral): 2.55 L
ka,FD (first-order absorption rate constant, first dose) [2]: 1.75 (52.7) [18.9] h^−1
ka,MD (first-order absorption rate constant, multiple dose) [2]: 0.945 (139) [54.0] h^−1
tauFD (transit compartment transfer rate constant BP to CVF, first dose) [2]: 0.866 (208) [77.5] h^−1
tauMD (transit compartment transfer rate constant BP to CVF, multiple dose) [2]: 0.383 (156) [55.8] h^−1
estimated fu (protein-unbound fraction in blood) ([5]; used in the model to control drug transfer into CVF, ref [14]–[17]): 0.01
IC50 (concentration producing 50 % inhibition of wild-type HIV virus) (wild-type HIV virus; ref [36]): 0.51 ng/mL
AUC ([3]; female, human, CVF, oral, CVF AUCτ, multiple dose, median (25th, 75th percentiles), model-predicted): 0.262 ng·h/mL
AUC ([3]; female, human, cervicovaginal fluid, oral, CVF AUCτ, first dose, median (25th, 75th percentiles), model-predicted): 0.0127 ng·h/mL
CVF AUCτ:BP fAUCτ ratio ([3]; female, human, in vivo): 0.527 (0.298, 1.28)
Kp [3, 6]: 0.00527
AUC ([3]; female, human, plasma, oral, BP AUCτ, first dose, median (25th, 75th percentiles), model-predicted): 24.5 ng·h/mL
AUC ([3]; female, human, plasma, oral, BP AUCτ, multiple dose, median (25th, 75th percentiles), model-predicted): 46.7 ng·h/mL
BP fAUCτ (unbound) [3, 8]: 0.245 (0.161, 0.303) μg•h/L
BP fAUCτ (unbound) [3, 9]: 0.470 (0.339, 1.06) μg•h/L
penetration / exposure in CVF relative to BP (in words) [4]: very low penetration into CVF

Nc1ccn([C@@H]2CS[C@H](CO)O2)c(=O)n1 [Lamivudine, lamivudine]
protein binding ([5]; ref [17]): 40%
CVF AUCτ ([3]; female, human, in vivo, 150 mg): 10.0 (6.07, 48.9) μg•h/L
AUC ([3]; female, human, in vivo, 150 mg, BP AUCτ): 3.86 ng·h/mL
AUC ([3]; female, human, in vivo, 300 mg, BP AUCτ): 10.1 ng·h/mL
AUC ([3]; female, human, in vivo, 300 mg, CVF AUCτ): 62.2 ng·h/mL

C[C@H](Cn1cnc2c(N)ncnc21)OCP(=O)(O)O [Tenofovir, tenofovir]
ka,FD (first-order absorption rate constant, first dose) [2]: 1.72 (61.1) [99.8] h^−1
ka,MD (first-order absorption rate constant, multiple dose) [2]: 1.05 (69.8) [30.0] h^−1
kg12 (transfer rate constant from CVF compartment 1 to 2) [2]: 0.525 (203) [63.6] h^−1
kg21 (transfer rate constant from CVF compartment 2 to 1) [2]: 0.323 (97.6) [60.7] h^−1
tauFD (transit compartment transfer rate constant BP to CVF, first dose) [2]: 1.53 (106) [71.1] h^−1
tauMD (transit compartment transfer rate constant BP to CVF, multiple dose) [2]: 1.24 (103) [130] h^−1
protein binding ([5]; ref [16]): < 7%
BP fAUCτ (unbound) ([3]; female, human, in vivo): 2.38 (1.59, 4.35) μg•h/L
AUC ([3]; female, human, in vivo, BP AUCτ): 2.56 ng·h/mL
AUC ([3]; female, human, in vivo, CVF AUCτ): 4.18 ng·h/mL
Kp [3, 6]: 1.57
Kp [3, 7]: 1.68
